Biological target: T1, human JAK1 (a.a. 837-1142) catalytic domain (Homo sapiens, UniProt P23458)
T1 construct: human JAK1 (a.a. 837-1142); His tag (N); made in house; host or cells: insect cells (baculovirus)
Assay: In vitro JAK kinase assay (HTRF, phosphorylation of biotinylated peptide)
Format: biochemical
Conditions: measured at 1 mM ATP
Method: The compound of Formula I was tested for inhibitory activity of JAK targets according to the following in vitro assay described in Park et al., Analytical Biochemistry 1999, 269, 94-104. The catalytic domains of human JAK1 (a.a. 837-1142) and JAK2 (a.a. 828-1132) with an N-terminal His tag were expressed using baculovirus in insect cells and purified. The catalytic activity of JAK1 and JAK2 was assayed by measuring the phosphorylation of a biotinylated peptide. The phosphorylated peptide was detected by homogenous time resolved fluorescence (HTRF). IC50s of compounds were measured for each kinase in the 40 micro L reactions that contain the enzyme, ATP and 500 nM peptide in 50 mM Tris (pH 7.8) buffer with 100 mM NaCl, 5 mM DTT, and 0.1 mg/mL (0.01%) BSA. For the 1 mM IC50 measurements, ATP concentration in the reactions was 1 mM. Reactions were carried out at room temperature for 1 hr and then stopped with 20 μL 45 mM EDTA, 300 nM SA-APC, 6 nM Eu-Py20 in assay buffer (Perkin Elmer, Boston, Mass.). Binding to the Europium labeled antibody took place for 40 minutes and HTRF signal was measured on a Fusion plate reader (Perkin Elmer, Boston, Mass.).

T1 sequence (P23458 849-1154): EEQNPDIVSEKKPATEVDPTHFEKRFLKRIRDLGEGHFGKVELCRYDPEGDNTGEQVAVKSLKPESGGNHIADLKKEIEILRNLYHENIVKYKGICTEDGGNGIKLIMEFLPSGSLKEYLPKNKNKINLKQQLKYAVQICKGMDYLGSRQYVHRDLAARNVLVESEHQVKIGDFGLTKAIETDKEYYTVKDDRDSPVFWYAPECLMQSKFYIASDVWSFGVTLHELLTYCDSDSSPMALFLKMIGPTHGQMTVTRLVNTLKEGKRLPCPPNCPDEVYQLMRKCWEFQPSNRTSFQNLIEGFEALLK

Compound `N#CCC1(n2cc(-c3ncnc4[nH]ccc34)cn2)CN(C2CCN(C(=O)c3ccnc(C(F)(F)F)c3F)CC2)C1` [Formula I, {1-{1-[3-fluoro-2-(trifluoromethyl)isonicotinoyl]piperidin-4-yl}-3-[4-(7H-pyrrolo[2,3-d]pyrimidin-4-yl)-1H-pyrazol-1-yl]azetidin-3-yl}acetonitrile] has an IC50 of under 5 nM.

Reference: patent US10899736B2, “Processes and intermediates for making a JAK inhibitor” (Incyte Corporation, priority 2018, dated 2021)
